{"source": "patent US8017350B2", "about": "“Glimepiride- and insulin-induced glycosylphosphatidylinositol-specific phospholipase C regulation” (Sanofi-Aventis Deutschland GmbH, priority 2004, dated 2011)", "key": {"[1]": {"tested_on": "pp59Lyn and IRS-1 in rat adipocytes", "test": "Tyrosine phosphorylation of pp59Lyn and IRS-1", "format": "cell-based", "details": "GPI-2350; IRS-1 tyrosine phosphorylation and glucose transport", "experimental": "Polypeptides separated by SDS-PAGE were transferred to polyvinylidene difluoride membranes using the semidry procedure as described in “Müller, G. et al., (2001) Mol. Cell. Biol. 21: 4553-4567”. Washed membranes were incubated with anti-caveolin-1 (1:2000), anti-pp59^Lyn (1:1250), anti-aP (1:500), anti-5′-Nuc (1:750) and anti-IRS-1 (1:2000) antibodies for 4 h at 15° C. Washed membranes were incubated with horseradish peroxidase-coupled secondary goat anti-mouse (1:2000) or goat anti-rabbit IgG (1:4000) antibodies. Labeled proteins were visualized by enhanced chemiluminescence.\nFIG. 7: Effect of GPI-2350 on the glimepiride/insulin-induced activation of signaling proteins. Isolated rat adipocytes were treated (5 min, 37° C.) without or with GPI-2350 (Panels A, 50 μM; Panels B, increasing conc.) and then incubated (120 min, 37° C.) in the absence or presence of insulin (10 nM) or glimepiride (20 μM). IRS-1 and pp59^Lyn were immunoprecipitated from the defatted postnuclear infranatant (see Materials and Methods) and solubilized combined hc/lcDIGs, respectively, and then immunoblotted for phosphotyrosine. […]"}, "rat liver PI-PLC": {"tested_on": "rat liver PI-PLC", "test": "mammalian PI-PLC assay", "format": "biochemical", "details": "50 μM", "experimental": "Hormone-sensitive lipase (HSL) and lipoprotein lipase (LPL) were measured using a radiolabeled triolein droplet emulsion as described in “Vertesy et al., (2002) Journal Antibiotics 55:480-494”. Pancreatic lipase (PL) was determined by incubation of 0.25 mmol tributyrin in 2 ml of 5 mM Tris/HCl (pH 6.5), 6 mM sodium taurodeoxycholate, 150 mM NaCl, 1 mM CaCl2 with porcine PL and colipase in the same buffer using a recording pH stat (stirring at 1000 rpm at 25° C.) with the pH adjusted to 6.5. PC-PLC was assayed by incubation of 0.2 ml of 10 mM dipalmitoyllecithin, 0.1 ml of 10 mM SDC and 0.1 ml of 0.03 M CaCl2 with bacterial PC-PLC (in 50 mM Tris/HCl, pH 7.5, 0.1% BSA) for 10 min at 37° C. The reaction was terminated by addition of 0.1 ml of 50% TCA and subsequently of 2.5 ml of […]. After centrifugation (1500×g, 15 min), 0.2-ml portions of the upper methanol/water phase (˜1.33 ml) were removed, supplemented with 0.5 ml of 60% HClO4, then heated at 170° C. for 1 h and finally analyzed for inorganic phosphate. Mammalian PI-PLC was measured by incubation of 0.1 ml of 10 mM PI, 0.1 ml of 0.8% sodium deoxycholate, 0.1% BSA, 0.2 ml of 100 mM sodium borate (pH 7.5) and rat liver PI-PLC for 20 min at 37° C. The reaction was terminated and further processed as described for the PC-PLC. […] Radioactive phosphatidic acid was detected by phosphorimaging. […]"}}, "data": [{"smiles": "CCCCCCCCCCCCP1(=O)O[C@@H]2[C@H](O)[C@@H](O)[C@H](O)[C@@H](O)[C@@H]2O1", "note": "(some centres unmarked) [GPI-2350, myo-inositol-1,2-cyclo-dodecylphosphonic acid]", "values": [{"measurement": "effect on stimulation by other insulin-mimetic stimuli", "setting": "[1]", "result": "neither IRS-1 tyrosine phosphorylation nor glucose transport (Tab. 3) by these stimuli was affected significantly"}, {"measurement": "effect on PI-PLC", "setting": "rat liver PI-PLC", "result": "not significantly affected"}]}]}
